Each block holds one molecule with its values, some of them ahead of it.
Columns and labels:
[1] = biological target: T1, α-NAGA mutant (SEQ ID NO:8) (Homo sapiens, UniProt P17050, A191L/S188E); assay: Screening of inhibitor (1): remaining enzyme activity of α-NAGA mutant with 4-methylumbelliferyl α-D-galactopyranoside; type: biochemical; settings: 400 μM compound, pH 4.6, 37° C., 30 minutes
T1 sequence (P17050 with tags, fused parts or gaps S188E/A191L): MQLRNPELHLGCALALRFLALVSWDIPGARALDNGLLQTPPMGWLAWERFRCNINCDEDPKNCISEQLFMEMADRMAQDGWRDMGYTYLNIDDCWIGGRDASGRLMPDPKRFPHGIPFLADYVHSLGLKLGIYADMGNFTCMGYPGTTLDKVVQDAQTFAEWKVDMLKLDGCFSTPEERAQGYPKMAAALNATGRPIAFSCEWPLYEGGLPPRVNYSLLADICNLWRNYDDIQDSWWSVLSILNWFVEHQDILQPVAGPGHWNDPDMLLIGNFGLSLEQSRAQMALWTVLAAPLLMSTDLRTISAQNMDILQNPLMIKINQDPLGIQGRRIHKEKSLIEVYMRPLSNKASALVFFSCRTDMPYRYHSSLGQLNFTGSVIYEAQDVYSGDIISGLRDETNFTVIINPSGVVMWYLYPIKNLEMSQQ
Experimental: The screening of inhibitor was carried out as follows: An inhibitor candidate compound dissolved in purified water or DMSO was added to 20 ng of an α-NAGA mutant (SEQ ID NO:8) and 4 mM 4-methylumbelliferylα-D-galactopyranoside dissolved in 0.1 M phosphate-citrate buffer (pH 4.6) such that a concentration of the inhibitor candidate compound became 0.8, 1, or 400 μM, and the mixture thus obtained was caused to react at 37° C. for 30 minutes (the total amount was 50 μl). After the reaction, 950 μl of 0.2 M glycine buffer (pH 10.7) was added to stop the reaction. Then, released 4-methylumbelliferone was measured at an excitation wavelength of 355 nm and at a fluorescence wavelength of 460 nm with use of Wallac 1420 ARVO MX Multilabel Counter. Remaining enzyme activity was calculated based on the assumption that an enzyme activity value obtained in a case where purified water or DMSO is added instead of the inhibitor candidate compound is 100%.

α-NAGA mutant [2] = biological target: T2, α-NAGA mutant (Homo sapiens, UniProt P17050, A191L/S188E); assay: Calculation of inhibition constant Ki (Lineweaver-Burk plot); type: biochemical; settings: substrate 1-8 mM; DGJ 100-400 nM, GBS 200-800 nM; pH 4.6; FIG. 2
T2 sequence (P17050 with tags, fused parts or gaps S188E/A191L): T1 sequence (P17050 with tags, fused parts or gaps S188E/A191L)
Experimental: Enzymatic analysis was carried out by using, as a reaction liquid, 50 ng of an α-NAGA mutant and 0.1 M phosphate-citrate buffer (pH 4.6) in which a 4-methylumbelliferylα-D-galactopyranoside substrate was dissolved at any of concentrations (1, 2, 4, 6, and 8 mM) (the total amount was 50 μl). In measuring inhibitory activity, reaction was carried out with a reaction liquid which contained DGJ at a concentration of 100, 200, or 400 nM or GBS at a concentration of 200, 400, or 800 nM. After the reaction was carried out at 37° C. for 10 minutes, 950 μl of 0.2 M glycine buffer (pH 10.7) was added to stop the reaction. Then, released 4-methylumbelliferone was measured at an excitation wavelength of 355 nm and at a fluorescence wavelength of 460 nm with use of Wallac 1420 ARVO MX Multilabel Counter. From these values, a Lineweaver-Burk plot was prepared and an inhibition constant Ki was calculated from slopes in the plot which correspond to respective concentrations of the inhibitor.

α-NAGA mutant [3] = biological target: T2, α-NAGA mutant; assay: Screening of inhibitor (2): inhibition of enzyme activity of α-NAGA mutant; type: biochemical; settings: 0.1, 1, or 10 μM compound, pH 4.6, 37° C., 30 minutes; FIG. 1
Experimental: The second screening was carried out as follows: DGJ, GBS, N-C-DGJ, N-DGJ, or N-HE-DGJ dissolved in purified water or DMSO was added to 25 ng of an α-NAGA mutant and 4 mM 4-methylumbelliferylα-D-galactopyranoside dissolved in 0.1 M phosphate-citrate buffer (pH 4.6) such that a concentration of DGJ, GBS, N-C-DGJ, N-DGJ, or N-HE-DGJ became 0.1, 1, or 10 μM, and the mixture thus obtained was caused to react at 37° C. for 30 minutes (the total amount was 50 μl). After the reaction was finished, 950 μl of 0.2 M glycine buffer (pH 10.7) was added to stop the reaction. Then, released 4-methylumbelliferone was measured at an excitation wavelength of 355 nm and at a fluorescence wavelength of 460 nm with use of Wallac 1420 ARVO MX Multilabel Counter. Remaining enzyme activity was calculated based on the assumption that an enzyme activity value obtained in a case where purified water or DMSO is added instead of the inhibitor candidate compound is 100%. FIG. 1 is a view illustrating inhibition of enzyme activity of an α-NAGA mutant by DGJ.

[4] = test system: Fabry disease model mouse; settings: Fabry disease model mouse to which the α-NAGA mutant has been administered; cited from earlier work

inhibition effect on α-NAGA mutant (remaining enzyme activity) [1]: the inhibition effect was seen
Molecule: O=S(=O)(O)C1NC(CO)C(O)C(O)C1O (stereo not shown) [GBS, galactostatin bisulfite]
inhibition pattern from inhibition constant Ki (α-NAGA mutant [2]): inhibitory activity by competitive inhibition
inhibition of enzyme activity of an α-NAGA mutant (remaining enzyme activity) (α-NAGA mutant [3]): had the effect of inhibiting activity of an α-NAGA mutant

B1: α-NAGA mutant: mutant human α-N-acetylgalactosaminidase, serine 188 to glutamic acid and alanine 191 to leucine, having α-galactosidase activity (SEQ ID NO:8 used) (protein)
chain: T1 sequence (P17050 with tags, fused parts or gaps S188E/A191L)
degradation of Gb3 and Lyso-Gb3 accumulated in organs [4]: Gb3 and Lyso-Gb3 which are accumulated in organs are degraded

From patent publication US20200115698A1, “PHARMACEUTICAL COMBINATION FOR TREATMENT OF FABRY DISEASE AND USE THEREOF” (MEIJI PHARMACEUTICAL UNIVERSITY, priority 2017, published 2020)
